The subject of assay [1] is K562 (chronic myelogenous leukaemia). The assay is described as follows: Effect of compounds on tumor cell lines (assay of Latham et al.), K562. The format is cell-based. The following applies: Table 1, K562 cells, examined 96 hours after treatment, 1 μM to 100 μM in DMSO, read-out: K 562 potency (IC50). The protocol:
(§1) The effect of the compounds of the invention on tumor cells was determined by the assay described by Latham et al., Oncogene 12:827-837 (1996). Tumor cells K562 (chronic myelogenous leukaemia) or DU145 (prostate cancer) were plated in 12-well dishes at a cell density of 2.5×10^4 cells well. The plated cells were treated 24 hours later with a compound of the invention dissolved in DMSO at multiple concentrations ranging from 1 μM to 100 μM. The plates were examined 96 hours later under an inverted microscope, Olympus CK-2 using an 10× objective, and compound activity was noted by physical observation. When necessary, the total number of viable cells was determined by trypsinizing the wells and counting the number of viable cells, as determined by trypan blue exclusion, using a hemacytometer.
(§2) The representative compounds listed in Tables 1-5 are shown by way of illustration, and are not intended to limit the scope of the invention. The compounds are prepared and tested by methods based on those described above, except that the compound of Table 5 was dissolved in DMSO at multiple concentrations ranging from 0.1 μM to 100 μM

Assay [2] concerns DU145 (prostate cancer). The assay is described as follows: Effect of compounds on tumor cell lines (assay of Latham et al.), DU145. The class given is cell-based. To be noted: Table 1, DU145 cells, examined 96 hours after treatment, 1 μM to 100 μM in DMSO, read-out: DU 145 potency (IC50). The protocol: as §1, §2

Molecules are shown by their SMILES. Read-outs that look alike come from different tables or passages of the source.

Regarding `O=C(C(=Cc1ccc([N+](=O)[O-])c(O)c1)Sc1c(F)c(F)c(F)c(F)c1F)c1ccc(Br)cc1` [Example 1], the IC50 in assay [1] was in the range of 1 to 10 µM; in assay [2], 10 to 25 µM.
For `O=C(C(=Cc1ccc(O)c([N+](=O)[O-])c1)Sc1c(F)c(F)c(F)c(F)c1F)c1ccc(Br)cc1` [Example 2], the IC50 in assay [1] and in assay [2] was 10 to 25 µM throughout.
Turning to `O=C(C(=Cc1cc(Cl)cc(Cl)c1Cl)Sc1ccccc1Br)c1ccc(Cl)cc1` [Example 3], the IC50 in assay [1] was 50 to 100 µM; in assay [2] it was 25 to 50 µM.
With `O=C(C(=Cc1c(O)cc(O)cc1O)Sc1ccccc1Br)c1ccc(Br)cc1` [Example 4], the IC50 in assay [1] and in assay [2] was > 100 µM in each case.
In the case of `O=C(C(=Cc1c(O)cc(O)cc1O)Sc1ccccc1Br)c1ccc(Cl)cc1` [Example 5], the IC50 in assay [1] and in assay [2] was > 100 µM each time.
Regarding `O=C(C(=Cc1ccc(O)cc1O)Sc1ccccc1Br)c1ccc(Br)cc1` [Example 6], the IC50 in assay [1] and in assay [2] was 50 to 100 µM in each case.
`O=C(C(=Cc1ccc(O)cc1O)Sc1ccccc1Br)c1ccc(Cl)cc1` [Example 7]: the IC50 in assay [1] and in assay [2] was 50 to 100 µM in each case.
As to `O=C(C(=Cc1ccccc1O)Sc1ccccc1Br)c1ccc(Br)cc1` [Example 8], the IC50 in assay [1] and in assay [2] was 50 to 100 µM throughout.
As to `O=C(C(=Cc1ccc(Br)cc1)Sc1ccccc1Br)c1ccc(Br)cc1` [Example 9], the IC50 in assay [1] and in assay [2] was 1 to 10 µM in each case.
As to `O=C(C(=Cc1ccc(O)c([N+](=O)[O-])c1)Sc1ccccc1Br)c1ccc(Br)cc1` [Example 10], the IC50 is 10 to 25 µM in assay [1] and 1 to 10 µM in assay [2].
For the molecule `O=C(C(=Cc1ccc(O)c([N+](=O)[O-])c1)Sc1ccccc1Br)c1ccc(Cl)cc1` [Example 11], the IC50 in assay [1] was in the range of 10 to 25 µM; in assay [2], 25 to 50 µM.
The matching figures for `CN(C)c1ccc(C=C(Sc2ccccc2Br)C(=O)c2ccc(Br)cc2)cc1` [Example 12]: > 100 µM and > 100 µM.
In the case of `O=C(C(=Cc1c(O)cc(O)cc1O)Sc1ccc(Br)cc1)c1ccc(Cl)cc1` [Example 13], the IC50 in assay [1] is 50 to 100 µM; in assay [2] it was 25 to 50 µM.
As to `COc1cc(OC)c(C=C(Sc2ccc(Br)cc2)C(=O)c2ccc(Cl)cc2)c(OC)c1` [Example 14], the IC50 in assay [1] and in assay [2] was 50 to 100 µM each time.
With `O=C(/C(=C\c1ccc(Cl)cc1Cl)Sc1ccc(Br)cc1)c1ccc(Br)cc1` [Example 15, (E)-1-(4-Bromophenyl)-2-(4-bromophenylthio)-3-(2,4-dichlorophenyl)-prop-2-en-1-one], the IC50 in assay [1] (Homo sapiens) lay within 1 to 10 µM; in assay [2] (Homo sapiens, DU-145), 1 to 10 µM.
Regarding `O=C(C(=Cc1ccc(O)cc1O)Sc1ccc(Br)cc1)c1ccc(Cl)cc1` [Example 16], the IC50 in assay [1] was 25 to 50 µM; in assay [2] it was 50 to 100 µM.
`O=C(C(=Cc1ccc(F)cc1F)Sc1ccc(Br)cc1)c1ccc(Br)cc1` [Example 17]: the IC50 in assay [1] and in assay [2] was 1 to 10 µM throughout.
On to `O=C(C(=Cc1ccc(F)cc1F)Sc1ccc(Br)cc1)c1ccc(Cl)cc1` [Example 18], for which the IC50 in assay [1] and in assay [2] was 1 to 10 µM throughout.
In the case of `Cc1ccc(C)c(C=C(Sc2ccc(Br)cc2)C(=O)c2ccc(Cl)cc2)c1` [Example 19], the IC50 in assay [1] and in assay [2] was 10 to 25 µM in each case.
As for `Nc1c(Br)cc(Br)cc1C=C(Sc1ccc(Br)cc1)C(=O)c1ccc(Br)cc1` [Example 20], the IC50 in assay [1] and in assay [2] was > 100 µM throughout.
On to `O=C(C(=Cc1ccccc1OCc1ccccc1)Sc1ccc(Br)cc1)c1ccc(Cl)cc1` [Example 21], for which the IC50 in assay [1] and in assay [2] was 10 to 25 µM each time.
Consider `O=C(C(=Cc1ccc(F)cc1Cl)Sc1ccc(Br)cc1)c1ccc(Br)cc1` [Example 22], for which the IC50 in assay [1] and in assay [2] was 1 to 10 µM each time.
Consider `COc1ccc(C=C(Sc2ccc(Br)cc2)C(=O)c2ccc(Br)cc2)c(F)c1` [Example 23], for which the values for the IC50 in assay [1] and in assay [2] were 1 to 10 µM and 10 to 25 µM, respectively.
With `O=C(C(=Cc1ccccc1F)Sc1ccc(Br)cc1)c1ccc(Cl)cc1` [Example 24], the IC50 in assay [1] was 1 to 10 µM; in assay [2], 10 to 25 µM.
Regarding `COc1ccccc1C=C(Sc1ccc(Br)cc1)C(=O)c1ccc(Cl)cc1` [Example 25], the IC50 in assay [1] and in assay [2] was 10 to 25 µM throughout.
On to `Cc1cc(C)cc(C=C(Sc2ccc(Br)cc2)C(=O)c2ccc(Cl)cc2)c1` [Example 26], for which the IC50 in assay [1] lay within 1 to 10 µM; in assay [2], 10 to 25 µM.
Turning to `O=C(C(=Cc1ccc(O)c(Br)c1)Sc1ccc(Br)cc1)c1c(F)c(F)c(F)c(F)c1F` [Example 27], the IC50 in assay [1] and in assay [2] was 1 to 10 µM throughout.
For `O=C(O)c1cc(C=C(Sc2ccc(Br)cc2)C(=O)c2c(F)c(F)c(F)c(F)c2F)ccc1O` [Example 28], the IC50 in assay [1] and in assay [2] was 25 to 50 µM throughout.
For the molecule `O=C(C(=Cc1ccc([N+](=O)[O-])c(O)c1)Sc1ccc(Br)cc1)c1c(F)c(F)c(F)c(F)c1F` [Example 30], the IC50 in assay [1] and in assay [2] was 1 to 10 µM throughout.
As for `O=C(C(=Cc1c[nH]c2ccccc12)Sc1ccc(Br)cc1)c1ccc(Br)cc1` [Example 31], the IC50 in assay [1] and in assay [2] was 1 to 10 µM in each case.
`O=C(C(=Cc1ccc(Br)c(O)c1)Sc1ccc(Br)cc1)c1ccc(Br)cc1` [Example 32]: the IC50 in assay [1] and in assay [2] was 1 to 10 µM each time.
With `O=C(C(=Cc1ccc(Br)c([N+](=O)[O-])c1)Sc1ccc(Br)cc1)c1ccc(Br)cc1` [Example 34], the IC50 in assay [1] and in assay [2] was 1 to 10 µM each time.
Consider `O=C(C(=Cc1ccc(Br)cc1)Sc1ccc(Br)cc1)c1ccc(Br)cc1` [Example 35], for which the IC50 in assay [1] and in assay [2] was 1 to 10 µM throughout.
In the case of `O=C(C(=Cc1ccc(Br)cc1)Sc1ccc(Br)cc1)c1ccc(Cl)cc1` [Example 36], the IC50 in assay [1] and in assay [2] was 1 to 10 µM throughout.
Consider `O=C(C(=Cc1ccc(Cl)c([N+](=O)[O-])c1)Sc1ccc(Br)cc1)c1ccc(Br)cc1` [Example 37], for which the IC50 in assay [1] and in assay [2] was 1 to 10 µM throughout.
Consider `O=C(C(=Cc1ccc(Cl)cc1)Sc1ccc(Br)cc1)c1ccc(Br)cc1` [Example 38], for which the IC50 in assay [1] and in assay [2] was 1 to 10 µM throughout.
As for `COc1cc(C=C(Sc2ccc(Br)cc2)C(=O)c2ccc(Br)cc2)ccc1F` [Example 39], the IC50 in assay [1] and in assay [2] was 1 to 10 µM in each case.
Consider `O=C(C(=Cc1ccc(F)cc1)Sc1ccc(Br)cc1)c1ccc(Br)cc1` [Example 40], for which the results for the IC50 in assay [1] and in assay [2] were 1 to 10 µM and 10 to 25 µM, respectively.
Consider `COc1cc(C=C(Sc2ccc(Br)cc2)C(=O)c2ccc(Br)cc2)ccc1O` [Example 41], for which the IC50 in assay [1] and in assay [2] was 1 to 10 µM throughout.
Turning to `O=C(C(=Cc1ccc(O)c([N+](=O)[O-])c1)Sc1ccc(Br)cc1)c1c(F)c(F)c(F)c(F)c1F` [Example 42], the IC50 in assay [1] and in assay [2] was 1 to 10 µM each time.
Turning to `O=C(C(=Cc1ccc(O)c([N+](=O)[O-])c1)Sc1ccc(Br)cc1)c1ccc(Br)cc1` [Example 43], the IC50 in assay [1] and in assay [2] was 1 to 10 µM throughout.
Turning to `CSc1ccc(C=C(Sc2ccc(Br)cc2)C(=O)c2ccc(Cl)cc2)cc1` [Example 46], the IC50 in assay [1] and in assay [2] was 1 to 10 µM in each case.

These data come from patent US8808702B2, “Sulfide, sulfoxide and sulfone chalcone analogues, derivatives thereof and therapeutic uses thereof” (Temple University-of the Commonwealth System of Higher …, priority 2006, dated 2014).
